Experimental data reported in patent publication US11970452B2, “Modulators of mas-related G-protein receptor X2 and related products and methods” (Escient Pharmaceuticals, Inc., priority 2020, dated 2024).

How the values were obtained:
[1] = test system: Human LAD2 cells; assay: Mast Cell Beta-Hexosaminidase Release Assay (versus 500 nM Cortistatin-14); assay type: cell-based; details: 500 nM Cortistatin-14 agonist, read-out: MRGPR2 Antagonist Activity
Procedure: Human LAD2 cells (NIH) were maintained in an incubator at 37° C. with 5% CO2 and cultured in StemPro-34 serum-free media (Gibco 10639011) supplemented with 2 mM L-glutamine, 100 U/ml penicillin, […] streptomycin and 100 ng/ml SCF (Invitrogen PEP0860), at a concentration of 2-5×10^5 cells/mL, with hemidepletion every 1-2 weeks.
Cells were transferred to SCF-Free medium at 2.5×10^5 cells/mL and kept in an incubator overnight. On the day of the assay, cells were washed twice in Assay Buffer (final concentrations 10 mM HEPES, 137 mM NaCl, 5.6 mM D-glucose, 2.7 mM KCl, 1 mM MgCl, 1.8 mM CaCl2, 0.4 mM Na2HPO4.7H2O, 0.04% BSA, pH=7.4) and plated in a 96-well v-bottom plate at 20,000 cells per well in 80 μL Assay Buffer. Antagonist compounds solubilized at 10 mM in DMSO were diluted in Assay Buffer to 10× final desired concentrations as a 10-point curve (10 μM final top concentration with 1:3 serial dilutions) and 10 μL added per well. Plates were then incubated for 1 hour at 37° C. Agonists were diluted in Assay Buffer to 10× desired concentrations and 10 μL of the appropriate agonist added to each well. The final concentration of Cortistatin-14 (Tocris 3374) used in antagonist assays was 500 nM. Final concentrations of DMSO were kept consistent across the plate. Plates were then incubated in a warm air oven for 30 minutes at 37° C., followed by centrifugation at 4° C. for 5 minutes at 450×g. 50 μL supernatant from each well was then transferred to a 96-well flat bottom plate containing 100 μL substrate solution per well (3.5 mg/mL p-Nitrophenyl-N-acetyl-β-D-glucosaminide (Sigma 487052) in Citrate Buffer containing a final concentration of 40 mM Citric Acid, 20 mM Na2HPO4.7H2O, pH=4.5). To the cell pellets left in the remaining assay buffer, 150 μL 0.1% Triton-X-100 was then added to each well, resuspended by pipetting up and down, and 50 μL cell lysates transferred to a second 96-well flat bottom plate containing 100 μL substrate solution per well. Plates containing transferred supernatant and cell lysates were then incubated in a warm air oven for 90 minutes at 37° C. After incubation, 50 μL of 400 mM Glycine buffer (pH 10.7) was added into each well and the plate was read on a Molecular Devices SpectraMax iD5 plate reader (absorbance at 405 nm with reference filter at 620 nm). After background subtraction, the percentage degranulation (percent beta-hexosaminidase release) was calculated as 100×(supernatant values)/(supernatant+lysate values), followed by analysis using GraphPad Prism software to calculate an IC50 value for each compound.
(§1) The activity ranges are denoted as follows: “+++++” denotes antagonist activity <100 nM; “++++” denotes antagonist activity between 100 and 500 nM; “+++” denotes activity between 501 and 1000 nM; “++” denotes activity between 1001 and 2500 nM; and “+” denotes activity >2500 nM

[2] = target: T1, human MRGPRX2 (Homo sapiens, UniProt Q96LB1); assay: MRGPRX2 activity: IP-One HTRF antagonist assay versus 0.3 uM Cortistatin 14; assay type: cell-based; details: CHO cells expressing human MRGPRX2; IP-1 HTRF; versus 0.3 uM Cortistatin 14 agonist; read-out: MRGPR2 Antagonist Activity
T1 construct: expressed in transfected cells
T1 sequence (Q96LB1 1-330): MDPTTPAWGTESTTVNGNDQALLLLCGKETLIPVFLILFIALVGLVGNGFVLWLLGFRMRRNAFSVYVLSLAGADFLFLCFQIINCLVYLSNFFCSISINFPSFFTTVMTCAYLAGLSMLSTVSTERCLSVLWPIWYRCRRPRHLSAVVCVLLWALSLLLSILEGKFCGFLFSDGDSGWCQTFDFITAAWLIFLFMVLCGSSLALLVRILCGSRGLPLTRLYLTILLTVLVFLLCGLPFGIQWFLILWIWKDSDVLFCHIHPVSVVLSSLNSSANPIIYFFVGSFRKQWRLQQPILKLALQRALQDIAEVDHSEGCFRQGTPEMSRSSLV
Procedure: CHO cells stably transfected to express human MRGPRX2 were maintained in an incubator at 37° C. with 5% CO2 and grown in F12 (HAM) media with 10% fetal bovine serum (FBS), 1% Glutamax, 1% penicillin/streptomycin, 800 μg/mL Geneticin (G418), and 300 μg/mL Hygromycin B.
Cells were plated in a […] assay plate at 20,000 cells per well in 12 μL of Opti-MEM and kept in an incubator overnight. On the day of the assay, compounds solubilized at 10 mM in DMSO were added as a 10-point curve (30 uM final top concentration with 1:3 serial dilutions) using a Tecan D300E digital dispenser. Agonists were diluted in assay buffer (final concentrations of 5.7 mM Tris-HCl, 43 mM NaCl, 50 mM LiCl, pH=8) and 2 μL of the agonist Cortistatin 14 (CPC Scientific, catalog CORT-002) are added to each well. Final concentrations of agonists were 0.3 μM Cortistatin. Final concentrations of DMSO were kept consistent across the plate. Plates were incubated in the dark for 1 h at 37° C. and then for 1 h at room temperature. IP-1 standards and HTRF detection reagents were added according to the IP-One-Gq Kit purchased from Cisbio (part number 62IPAPEJ) and incubated in the dark for 1 h at room temperature. The plate was read on a Molecular Devices SpectraMax iD5 plate reader. The HTRF ratio was calculated from the raw data and graphed using GraphPad Prism to calculate an IC50 value for each compound.
as §1

| Structure (SMILES) | IC50 [1] [µM] | IC50 [2] [µM] |
| --- | --- | --- |
| O=C(N[C@H]1CC[C@@H](Nc2cc(C(F)(F)F)nc3ccccc23)CC1)c1ccccc1 [3-30] | 0.501 to 1 | 0.1 to 0.5 |
| CN(C)c1ccc(C(=O)N[C@H]2CC[C@@H](Nc3cc(C(F)(F)F)nc4ccccc34)CC2)cc1 [3-25] | 0.1 to 0.5 | 0.1 to 0.5 |
| O=C(N[C@H]1CC[C@@H](Nc2cc(C(F)(F)F)nc3ccccc23)CC1)c1ccc(Cl)cc1 [3-10] | 0.1 to 0.5 | – |
| O=C(N[C@H]1CC[C@@H](Nc2cc(C(F)(F)F)nc3ccc(Cl)cc23)CC1)c1ccc(F)cc1 [1-5, 4-fluoro-N-[(1s,4s)-4-{[6-chloro-2-(trifluoromethyl)quinolin-4-yl]amino}cyclohexyl]benzamide] | 0.1 to 0.5 | – |

Further lines, results first:

| IC50 [1] [µM] | IC50 [2] [µM] | Structure (SMILES) |
| --- | --- | --- |
| 0.501 to 1 | – | N#Cc1cccc(C(=O)N[C@H]2CC[C@@H](Nc3nc(C(F)(F)F)nc4ccccc34)CC2)c1 [4-288] |
| < 0.1 | – | CNc1ccc(C(=O)N[C@H]2CC[C@@H](Nc3cc(C(F)(F)F)nc4ccc(Cl)cc34)CC2)cc1 [4-9] |
| 0.1 to 0.5 | < 0.1 | CC(=O)Nc1cccc(C(=O)N[C@H]2CC[C@@H](Nc3cc(C(F)(F)F)nc4ccc(Cl)cc34)CC2)c1 [4-7] |
